Here are results for three molecules from patent publication US20020035124A1, “Insecticidal and miticidal compositions” (priority 1996, published 2002).

The test system of series [1] is Kanzawa spider mite (Tetranychus kanzawai kishida) which are resistant to chlorfenapyr. The experiment in a line: Miticidal effect against female imagines of chlorfenapyr-resistant Kanzawa spider mite (leaf disk spray test). Particulars: for LC50: single test compound, female imago, chlorfenapyr-resistant strain, mortality two days after spray treatment, probit analysis. As to the method:
In this experiment, the miticidal effect against female imagines (adults) of Kanzawa spider mite (Tetranychus kanzawai kishida) which are resistant to chlorfenapyr is evaluated.
Round leaf disks (2 cm diameter) are cut out of a first leaf of kidney bean by a leaf punch and 4 sheets of the disks are placed on wet sanitary cotton in a plastic cup (8 cm diameter). On each leaf disk, 4 female imagines of Kanzawa spider mite (Tetranychus kanzawai kishida) which had acquired a strong resistance to chlorfenapyr are inoculated.
Each plastic cup is sprayed with 3.5 ml of a test solution with a rotary spray tower (Mizuho Scientific Co., Ltd.) and stored in a constant temperature chamber held at 25±1° C. (32 individuals are tested per concentration, 4-5 concentrations are evaluated per formulation and 2 performances are repeated). […] [formula] […]
The tested mite was a female image of the chlorfenapyr-resistant strain of Kanzawa spider mite which was obtained by a long artificial selection procedure against chlorfenapyr in a laboratory on a colony of Kanzawa spider mite which had been collected in the field.

Series [2] has as its system susceptible strain of spider mite. Nature of the series: LC50 against a susceptible strain of spider mite. The class given is in vivo.

A word on the LC50: it is the concentration that kills 50% of the test population. A high value points to lower toxicity.

`CCC(C)c1ccccc1OC(=O)NC` (centres unmarked) [BPMC, 2-sec-Butylphenyl-N-methylcarbamate] gave a median lethal concentration (LC50) in series [1] of 3200 ppm.
On the same count and under the same terms, the same measure for `CCSCc1ccccc1OC(=O)NC` [Ethiofencarb, 2-(Ethylthiomethyl)phenyl methylcarbamate]: 2100 ppm.
With `CCOCn1c(-c2ccc(Cl)cc2)c(C#N)c(Br)c1C(F)(F)F` [Chlorfenapyr, 4-Bromo-2-(4-chlorophenyl)-1-(ethoxymethyl)-5-(trifluoromethyl)pyrrole-3-carbonitrile], the LC50 entry in series [2] is given as “about 5 ppm”; in series [1], 1500 ppm. For the same molecule, the “resistance to chlorfenapyr of the resistant strain versus susceptible strain” value in series [1] (LC50 resistant strain relative to susceptible strain) is on record as around 300 fold.
